One experiment concerns the target T1, Btk (human, full length) (Homo sapiens, UniProt Q06187).
T1 construct: Btk (human, full length) was purchased (Invitrogen, catalog number PV3363); purchased Invitrogen PV3363
Kind of experiment: Btk in vitro kinase activity assay (32P-ATP, poly[Glu:Tyr]). To be noted: 30 min pre-incubation with inhibitor, 5 nM Btk. The format is biochemical. The protocol:
General Procedure for Btk In Vitro Kinase Activity Assay.
Btk (human, full length) was purchased (Invitrogen, catalog number PV3363) and used following a procedure modified from the product literature. […] Subsequently, Btk (5 nM final concentration) in kinase assay buffer supplemented with BSA (0.1 mg/mL) was pre-incubated with inhibitors (six or ten concentrations, in duplicate, 5% DMSO final concentration) for 30 minutes at room temperature. Kinase reactions were initiated by the addition of 0.16 μCi/μL of γ-^32P-ATP (6000 Ci/mmol, NEN) and 0.2 mg/mL substrate (poly[Glu:Tyr], 4:1 Glu:Tyr) and incubated for 30 minutes at room temperature. Kinase activity was determined by spotting 5 μL of each reaction onto sheets of phosphocellulose. Each blot was washed once with 10% AcOH solution, twice with 0.1% H3PO4 solution, and once with MeOH (5-10 minutes per wash). Dried blots were exposed for 30 minutes to a storage phosphor screen and scanned by a Typhoon imager (GE Life Sciences). The data were quantified using ImageQuant (v. 5.2, Molecular Dynamics) and plotted using GraphPad Prism 4.0 software.

In the next experiment the target is BTK (Homo sapiens, UniProt Q06187). Nature of the experiment: Reversibility of binding: compound in solution before and after perturbation of the target (HPLC-MS/MS). On the procedure: The following approach was developed to differentiate compounds that form irreversible bonds with their targets, such as acrylamide compounds, from compound that bind reversibly. […] The reactions were then treated with perturbations including both denaturation with 5 M guanidine hydrochloride and digestion with trypsin, disrupting proper folding of the target. […] The concentration of compound in solution was assessed both preceding and following perturbation using high performance liquid chromatography (HPLC) coupled to tandem mass spectrometry.
Sequence of BTK (Q06187 whole entry): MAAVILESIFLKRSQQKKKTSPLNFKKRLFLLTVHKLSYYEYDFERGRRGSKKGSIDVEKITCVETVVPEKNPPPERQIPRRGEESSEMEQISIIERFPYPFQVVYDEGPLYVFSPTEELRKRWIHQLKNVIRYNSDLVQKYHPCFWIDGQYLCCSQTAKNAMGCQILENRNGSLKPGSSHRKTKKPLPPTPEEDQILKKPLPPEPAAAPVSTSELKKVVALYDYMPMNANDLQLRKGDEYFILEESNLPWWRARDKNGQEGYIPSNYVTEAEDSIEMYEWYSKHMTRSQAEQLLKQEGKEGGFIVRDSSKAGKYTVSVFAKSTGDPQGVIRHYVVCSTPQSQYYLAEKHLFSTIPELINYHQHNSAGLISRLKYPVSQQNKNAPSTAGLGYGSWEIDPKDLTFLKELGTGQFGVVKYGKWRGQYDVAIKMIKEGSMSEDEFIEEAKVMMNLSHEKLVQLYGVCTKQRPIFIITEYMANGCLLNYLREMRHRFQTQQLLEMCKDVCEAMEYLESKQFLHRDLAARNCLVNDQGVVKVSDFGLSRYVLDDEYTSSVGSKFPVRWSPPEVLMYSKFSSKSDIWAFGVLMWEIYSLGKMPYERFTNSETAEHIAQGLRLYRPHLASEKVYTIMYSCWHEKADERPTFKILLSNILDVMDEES

T1 sequence (Q06187 whole entry): as above

One may read the IC50 as the concentration that gives 50% inhibition. A high value points to weaker potency in that assay. `N#C/C(=C\c1ccccc1)C(=O)N1CCCC(n2nc(-c3ccc(Oc4ccccc4)cc3)c3c(N)ncnc32)C1` (centres unmarked) came in with an IC50 against Btk (human, full length) of less than 0.1 µM.
On the same count and under the same terms, the result for `N#C/C(=C\c1ccccc1Cl)C(=O)N1CCCC(n2nc(-c3ccc(Oc4ccccc4)cc3)c3c(N)ncnc32)C1` (centres unmarked) reads less than 0.1 µM; that for `N#C/C(=C\C1CC1)C(=O)N1CC[C@@H](n2nc(-c3ccc(Cl)cc3)c3c(N)ncnc32)C1`, less than 0.1 µM.
Same read-out and setting: for `N#C/C(=C\C1CC1)C(=O)N1CCCC(n2nc(-c3ccc(Cl)cc3)c3c(N)ncnc32)C1` (centres unmarked) the value was less than 0.1 µM; for `N#C/C(=C\C1CC1)C(=O)N1CC[C@@H](n2nc(-c3ccc(Oc4ccccc4)cc3)c3c(N)ncnc32)C1`, less than 1 µM; for `N#C/C(=C\C1CC1)C(=O)N1CC[C@H](n2nc(-c3ccc(Oc4ccccc4)cc3)c3c(N)ncnc32)C1`, less than 1 µM.
On Btk (human, full length), `CN(C)C(C)(C)/C=C(\C#N)C(=O)N1CCC[C@@H](n2nc(-c3ccc(Oc4ccccc4)cc3)c3c(N)ncnc32)C1` gave an IC50 of less than 0.1 µM.
Still for that read-out and setting: the result for `CC(C)(/C=C(\C#N)C(=O)N1CCC[C@@H](n2nc(-c3ccc(Oc4ccccc4)cc3)c3c(N)ncnc32)C1)CO` reads less than 1 µM.
Same read-out and setting: the result for `N#C/C(=C\C1CC1)C(=O)N1CCC(n2nc(-c3ccc(Oc4ccccc4)cc3)c3c(N)ncnc32)CC1` reads less than 1 µM; that for `N#C/C(=C\C1CC1)C(=O)N1CCC(Cn2nc(-c3ccc(Oc4ccccc4)cc3)c3c(N)ncnc32)CC1`, less than 1 µM; that for `N#C/C(=C\C1CC1)C(=O)N[C@H]1CC[C@@H](n2nc(-c3ccc(Oc4ccccc4)cc3)c3c(N)ncnc32)CC1`, less than 1 µM.
The same measure, in the same setting: for `N#C/C(=C\C1CC1)C(=O)N1CCCC(Cn2nc(-c3ccc(Oc4ccccc4)cc3)c3c(N)ncnc32)C1` (centres unmarked) [drawing 184] the value was less than 1 µM.
On to `N#C/C(=C\C1CC1)C(=O)N1CCCC(Cn2nc(-c3ccc(Oc4ccccc4)cc3)c3c(N)ncnc32)C1` (centres unmarked) [drawing 187], for which the “Compound in solution in the denatured or digested state?” value at BTK (after 5 M guanidine hydrochloride denaturation and trypsin digestion) was “yes”. Also, the “Compound in solution in the native state?” value at BTK (protein target in excess over compound, native state) is reported as “no”.

These data come from patent US9580427B2, “Kinase inhibitors” (The Regents of the University of California, priority 2011, dated 2017).
